Tested on: pERK in human cutaneous neurofibroma explants
Test: Human cutaneous neurofibroma explant pERK suppression (Western blot)
Type: cell-based
Procedure: Explant Protocol: Human cutaneous neurofibroma explant samples were collected in DMEM/F-12 (Thermo Fisher, Cat #11320033) supplemented with 1×B27 supplement (Thermo Fisher, Cat #17504044), 2.5 μg/ml of Amphotericin B (Thermo Fisher, Cat #15290018), and 50 units/ml of Penicillin-50 μg/ml of Streptomycin (Thermo Fisher, Cat #15070063) and incubated in the same medium for subsequent treatment. The specimen was cut into small cubes containing both the epidermis and dermis. The tissues were partially submerged in the medium in 384-well plate with the epidermis exposed to the air.
The tissues were fully submerged in the medium in 48-well plate and 5 μl of compounds dissolved in DMSO were added to 200 μl of the medium in each well. After 4 h incubation at 37° C. and 5% CO2, the tissues were harvested and half of the specimen was flash frozen in liquid nitrogen for Western Blot analysis. The other half of the specimen was fixed for 24 hours in 10% formalin and then transferred to 70% ethanol for […].
Skin samples were thawed on ice and weighed. 10 volume (10 μl for each mg of tissue) of lysis buffer (RIPA buffer+0.5 mM EDTA+1×Halt protease and phosphatase inhibitor cocktail) was then added to each sample. […]
Western Blot analysis: The lysate was thawed on ice and protein concentration was determined by the BCA protein assay kit using bovine serum albumin (BSA) as standards. […]

N#Cc1ccc(C(=O)NOCCO)c(Nc2ccc(I)cc2F)c1F [Compound 1.030, 4-cyano-3-fluoro-2-((2-fluoro-4-iodophenyl)amino)-N-(2-hydroxyethoxy) benzamide] was tested, and the “suppression of pERK in human cutaneous neurofibroma (cNF) explants” value (concentration of 500 nM (FIG. 5)) was “suppression of pERK” and the “suppression of pERK in human cutaneous neurofibroma (cNF) explants” value (treatment for 4 hours at 5 nM, 50 nM, and 500 nM (FIG. 4)) was “suppression of pERK”.
